Results published in patent US20170363618A1, “AGE-MODIFIED CELLS AND METHODS FOR MAKING AGE-MODIFIED CELLS” (MEMORIAL SLOAN-KETTERING CANCER CENTER, priority 2015, published 2017).
Entries after “also recorded” stand apart in the source; their conditions may differ. Read-outs that look alike come from different tables or passages of the source.

Experiments:
[1] = system: young (348) and old (204) fibroblasts; experiment: 10-day culture with compounds, cell survival measured by cell number counts; assay type: cell-based
Method: Cell numbers are calculated as a mean of 8 wells.
Control cultures of young cells were still healthy after 10 days, and the compounds all had effects on viability (FIG. 15).

[2] = system: young (348) and old (204) fibroblasts; experiment: Immunofluorescence detection of aging marker expression in fibroblasts after three-day compound treatment; assay type: cell-based, human; conditions: for shape of youthful marker expression over the three doses (C1-C3): in some cases, highest dose gave lower expression than middle or lower dose
Method: Cell samples were all supplied by Coriell Cell Repositories. The cell line from a young individual (<20 years) was GM03348 (“348”). The cell line from an old individual (>65 years) was GM04204 (“204”).
Cells were cultured in human fibroblast medium made from 95% Gibco's Minimum Essential Medium, 4.5% fetal bovine serum, and 0.5% Penicillin/Streptomycin. Cells were plated on 15 cm plates and passaged every 2-3 days as necessary, and fed every other day. For experimentation, cells were plated in 96 well plates or 6 well plates. Before fixation, cells were treated with a preextraction buffer containing 20 mM Hepes pH 7.9, 0.5% Triton X-100, 50 mM NaCl, and 300 mM sucrose for 7 minutes at 4° C. to reduce the high levels of background seen in initial stainings. Cells were then fixed with 4% paraformaldehyde for 15 minutes at room temperature.
After fixing, cells were incubated in Permeablization Buffer containing 0.3% Triton X-100 and 1% BSA in PBS for 35 minutes at room temperature. Cells were then incubated with primary antibodies to markers (1:1000 in PBS) at 4° C. overnight. Following incubation, cells were washed 3× with PBS, then incubated with secondary antibodies (1:500 in PBS) for 30 minutes at room temperature, protected from light. Following this incubation, cells were washed 1× with PBS, then incubated with DAPI 1:1000 in PBS for 7 minutes at room temperature, protected from light, then washed 2× with PBS. Stainings were imaged using either using the Hamamatsu Olympus IX81 microscope, or the PerkinElmer Operetta High Content Imaging System. The expression level of each marker was determined relative to the untreated control on the same treatment plate (FIGS. 11, 13, 15 and 16), or to the average of the untreated controls across all treatment plates for the same marker (FIGS. 12 and 14).
Imaging of immunofluorescence was done using the PerkinElmer Operetta High Content Imaging System. Each well had several (>15) random spots in each plate imaged, and staining intensity quantification was done using the Operetta Harmony software. Analysis is based on mean intensity levels of each staining within a single well compared to mean intensity levels in other wells.
(§1) Cells were then treated with each of the six compounds for three days. Each compound had both a young and old untreated control, as well as the three pre-determined concentrations for both young and old cells. In addition, a six-well plate was set up for Decitabine, Zebularine, Chaetocin and SW155246, with an additional 3 cm plate for use as untreated controls for quantification of global levels of DNA methylation. After treatment, cells were stained with immunofluorescence for HP1α, H1, γH2Ax, Lamin B1, H3K9me3 and […].

[3] = system: global DNA levels of 5-mC methylation; experiment: Global 5-mC DNA methylation quantification (colorimetric Methylflash kit) in treated fibroblasts; assay type: cell-based, human; conditions: 3 days of treatment, young and old fibroblasts, three concentrations
Method: Genomic DNA was extracted from treated cell samples using the Quick-gDNA MicroPrep kit (Zymo). Global levels of DNA methylation were measured using the colorimetric Methylflash Methylated DNA quantification kit (Epigentek) according to manufacturer instructions, and read using the PerkinElmer ENSPIRE plate reader. gDNA sample size was 50 ng. Analysis was performed according to manufacturer instructions.
as §1

[4] = system: motor neurons (MNs); conditions: ALS motor neuron screen, 72 hr with compound; cited from earlier work
[5] = 3-day treatment, primary fibroblasts from young and old individuals, immunofluorescence vs untreated control
[6] = 3-day treatment, young and old fibroblasts

## CN1C(=O)[C@@]23C[C@]4([C@]56C[C@@]78SS[C@@](CO)(C(=O)N7[C@H]5Nc5ccccc56)N(C)C8=O)c5ccccc5N[C@@H]4N2C(=O)[C@]1(CO)SS3 [Chaetocin, (3S,3'S,5aR,5aR,10bR,10′bR,11aS,11′aS)-2,2′,3,3′,5a,5′a,6,6′-octahydro-3,3′-bis(hydroxymethyl)-2,2′-dimethyl-[10b,10′b(11H,11′H)-bi3,11a-epidithio-11aH-pyrazino[1′,2′:1,5]pyrrolo[2,3-b]indole]-1,1′,4,4′-tetrone]
[1]; 10-day culture, young cells (control cultures still healthy)
  toxicity / effect on viability after prolonged culture (cell number): highest toxicity

## Nc1ncn([C@H]2C[C@H](O)[C@@H](CO)O2)c(=O)n1 [Decitabine, 5-aza-2-deoxycytidine]
[1]
  toxicity / effect on viability after prolonged culture (cell number): Much less toxicity

## CO[C@H]1C[C@@H]2CC[C@@H](C)[C@@](O)(O2)C(=O)C(=O)N2CCCC[C@H]2C(=O)O[C@H]([C@H](C)C[C@@H]2CC[C@@H](O)[C@H](OC)C2)CC(=O)[C@H](C)/C=C(\C)[C@@H](O)[C@@H](OC)C(=O)[C@H](C)C[C@H](C)/C=C/C=C/C=C/1C [Rapamycin]
[1]
  toxicity / effect on viability after prolonged culture (cell number): Toxicity was also seen

## Oc1ccc(C=Cc2cc(O)cc(O)c2)cc1 [Resveratrol]
[1]
  toxicity / effect on viability after prolonged culture (cell number): Toxicity was also seen
[2]; 3-day culture
  effect on markers in young cells compared to old cells: greater in young cells compared to old cells; also recorded: more of an effect on young cells than on old cells
[2]; 3-day culture, young (348) and old (204) fibroblasts, normalized to untreated, FIG. 11
  levels of all markers (H1, HP1α, H3K9me3, H3K27me3, LaminB1, yH2Ax): increased
[2]; 3-day culture, young and old fibroblasts
  levels of the five markers of a younger state (H1, HP1α, H3K9me3, H3K27me3, LaminB1): all increased
[2]; [5]
  levels of HP1α (heterochromatin marker, marker of young cellular age): increasing
  levels of histone protein H1 (marker of young cellular age): increasing

## O=[N+]([O-])c1cc(S(=O)(=O)Nc2ccc(O)c3ccccc23)ccc1Cl [SW155246, 4-Chloro-N-(4-hydroxy-1-naphthalenyl)-3-nitro-benzenesulfonamide]
[1]
  toxicity / effect on viability after prolonged culture (cell number): Much less toxicity
[3]
  global levels of 5-mC DNA methylation: increased with both the highest and lowest concentrations, but decreased slightly with the middle concentration; also recorded: did not consistently go down
[2]; 3-day treatment
  shape of youthful marker expression over the three doses (C1-C3): inverted U shaped curve
[2]; [5]
  levels of HP1α (heterochromatin marker, marker of young cellular age): decreasing
  levels of histone protein H1 (marker of young cellular age): decreasing
  levels of γH2AX (DNA damage marker, marker of old cellular age): increasing
[2]; [6]
  expression of the six markers tested: modulated

## O=c1ncccn1[C@@H]1O[C@H](CO)[C@@H](O)[C@H]1O [Zebularine, 1-(β-D-Ribofuranosyl)-2(1H)-pyrimidinone]
[1]
  toxicity / effect on viability after prolonged culture (cell number): Much less toxicity
[3]
  global levels of 5-mC DNA methylation: decrease
[2]; 3-day treatment
  shape of youthful marker expression over the three doses (C1-C3): inverted U shaped curve
[2]; [6]
  expression of the six markers tested: modulated

## O=C1Cc2c([nH]c3ccc(Br)cc23)-c2ccccc2N1 [kenpaullone]
[4]
  survival of motor neurons after trophic factor withdrawal: impressive ability to prolong the healthy survival of MNs
